Assay results: patent US20150087004A1, “Microfabricated 3D Cell Culture System” (The Trustees of the University of Pennsylvania, priority 2012, published 2015)

System: Human umbilical vein endothelial cells (HUVECs)
Assay: Pro-angiogenic factor screening: directed invasion and sprouting from endothelialized parent vessel in 3D cell culture device
Format: cell-based
Conditions: for EC invasion into the matrix (single cell or collective cell invasion): factor added individually to source channel, over four days, 75 ng/mL (S1P 500 nM); for mode of cell migration / sprouting response: factor or cocktail in source channel, gradient across collagen matrix
Description: Examination the processes of angiogenic invasion and sprouting from an existing vessel in accordance with the disclosed subject matter will be described, with reference to FIG. 11A-D through FIG. 14A-F, for purpose of illustration and not limitation. Generally, a device in accordance with an embodiment of the disclosed subject matter can be prepared with an endothelium lining a cylindrical channel, surrounded by matrix, and exposed to a gradient of angiogenic factors emanating from a parallel source channel 150a. The device can be assembled by casting Type I collagen into a PDMS mold/gasket with two parallel needles held across the casting chamber. Upon collagen polymerization, the needles can be extracted to create hollow cylindrical channels in the collagen matrix 160. Endothelial cells (ECs) can be injected into one of the channels, allowing them to attach on the interior wall and form a confluent endothelium or “parent vessel” 150a. Flow can be maintained through both channels and media containing angiogenic factors can subsequently be added to the second channel to establish a gradient across the collagen matrix to the endothelium, as illustrated in FIG. 11B.
In a first example, the impact of various pro-angiogenic factors on directed invasion and sprouting from the parent vessel is examined. Six common factors associated with angiogenesis in the literature were selected: basic fibroblast growth factor (bFGF), hepatocyte growth factor (HGF), vascular endothelial growth factor (VEGF), monocyte chemotactic protein-1 (MCP-1), sphingosine-1-phosphate (S1P), and phorbol 12-myristate 13-acetate (PMA). After these factors were added individually to the non-endothelialized source channel, phase-contrast and confocal microscopy were used to assess the organization and development of EC invasion over four days.
In connection with the examples described herein, an exemplary device in accordance with the disclosed subject matter was fabricated from two patterned layers of poly(dimethylsiloxane) (PDMS; Sylgard 184; Dow-Corning) bonded to each other and sealed against a glass substrate (e.g., as depicted in FIG. 11A). The two PDMS layers were cast or double-cast from templates originally generated using standard photolithography of SU-8 on silicon wafers. To assemble the device, the bottom layer was first sealed to a glass coverslip. The top and bottom layers were then treated with oxygen plasma, bonded together, and cured at 110° C. overnight. Assembled devices then were treated with oxygen plasma, immersed in 0.1 mg/ml poly-L-lysine (Sigma) for 1 hr, 1% glutaraldehyde (Sigma) for 1.5 hr, washed several times with ddH2O, sterilized with UV light for 15 min, and soaked in 70% ethanol for 1 hr. To mold cylindrical channels, two 400 μm diameter acupuncture needles (Hwato) were inserted into parallel grooves at the top of the bottom layer and through the middle rectangular chamber approximately 200 μm above the glass coverslip surface. Rat tail collagen type I (2.5 mg/ml; BD Biosciences) was pipetted into the middle chamber and allowed to polymerize at 37° C. for 30 min. Excess collagen was subsequently aspirated from the fluid reservoirs feeding from the middle chamber. Devices were then covered with EGM-2 (Lonza) before the needles were extracted as described herein.
Cells were cultured and seeded in accordance with the disclosed subject matter into the device described in connection with the first example. Human umbilical vein endothelial cells (HUVECs) (Lonza) and human microvascular endothelial cells (HMVECs) (Lonza) were cultured in EGM-2 and EGM-2MV, respectively.

| Compound | EC invasion into the matrix (single cell or collective cell invasion) | mode of cell migration / sprouting response |
| --- | --- | --- |
| CCCCCCCCCCCCCC(=O)O[C@@H]1[C@@H](C)[C@@]2(O)[C@@H](C=C(CO)C[C@]3(O)C(=O)C(C)=C[C@@H]23)[C@@H]2C(C)(C)[C@]12OC(C)=O [PMA, phorbol 12-myristate 13-acetate] | substantial directed invasion | collective cell migration that manifested itself in the form of sparse, long, multi-cellular sprouts |
| CCCCCCCCCCCCC/C=C/[C@@H](O)[C@@H](N)COP(=O)(O)O [S1P, sphingosine-1-phosphate] | substantial directed invasion | chemotactic migration primarily of single cells |
| basic fibroblast growth factor [bFGF] | did not induce significant invasion | – |
| hepatocyte growth factor [HGF] | did not induce significant invasion | – |
| monocyte chemotactic protein-1 [MCP-1] | did not induce significant invasion | – |
| vascular endothelial growth factor [VEGF] | did not induce significant invasion | – |
